Test results published in patent publication US9089499B2, “Para-coumaric acid or para-hydroxycinnamic acid derivatives and their use in cosmetic or dermatological compositions” (BASF Beauty Care Solutions France S.A.S., priority 2005, dated 2015).
Where two headings read alike, the source gives them in different places. Each block holds one molecule with its values, some of them ahead of it.

Key:
[1] = target: T1, Human tyrosinase (Homo sapiens, UniProt P14679); assay: Inhibition of human tyrosinase after 24 h application to normal human melanocytes in monolayer; type: cell-based; details: for anti-tyrosinase activity, in words: comment on Table 4, normal human melanocytes; for inhibition at 1000 µM: 10^−3 M; for Tyrosinase inhibition, Mean Inhibition (%), 0.03%: test concentration 0.03%
T1 construct: endogenous in cells; host or cells: normal human melanocytes (abdominal surgery; several donors of fair, brown and black phototypes)
T1 sequence (P14679 19-529): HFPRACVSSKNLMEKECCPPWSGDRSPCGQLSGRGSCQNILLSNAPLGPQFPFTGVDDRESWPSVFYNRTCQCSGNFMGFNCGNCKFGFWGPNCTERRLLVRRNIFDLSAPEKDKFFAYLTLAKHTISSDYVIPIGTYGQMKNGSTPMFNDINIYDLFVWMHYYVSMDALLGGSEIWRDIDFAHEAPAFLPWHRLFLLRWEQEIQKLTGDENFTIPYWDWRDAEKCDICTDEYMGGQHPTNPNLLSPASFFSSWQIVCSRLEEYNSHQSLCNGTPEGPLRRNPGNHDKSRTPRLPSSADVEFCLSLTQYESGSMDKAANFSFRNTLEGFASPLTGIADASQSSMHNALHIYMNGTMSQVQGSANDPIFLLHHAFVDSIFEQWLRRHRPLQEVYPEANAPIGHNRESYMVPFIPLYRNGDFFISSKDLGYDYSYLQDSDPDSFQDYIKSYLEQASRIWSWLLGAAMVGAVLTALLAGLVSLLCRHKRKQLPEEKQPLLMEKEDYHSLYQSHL
Protocol: Normal human melanocytes (obtained from abdominal surgery) are seeded in 24-well plates at a rate of 80 000 cells per well. They are cultured to confluence and the active agents are applied for 24 hours to the culture media. After 24 hours, the media are removed and the melanocytes are detached via mechanical action. An extraction is performed via a thermal shock and the supernatants are then recovered and incubated with MBTH (Sigma) and L-dopa (Sigma). The OD at 490 nm is measured after 30 minutes, and the tyrosinase inhibition is calculated by relating the OD at 490 nm to the protein content (measured in each culture well) of the test relative to the ratio: OD 490 nm/protein concentration of the negative control (untreated control).
The compounds derived from the examples mentioned above were tested on melanocytes derived from various donors but of fair phototype, according to the protocol described in Example 29. The donors tested are as follows: • donor S (donor tested in Example 12): • donor 1: • donor 2: • donor 3
The compound derived from Example 1 is tested on cultures of melanocytes obtained from 2 donors of brown phototype and from one donor of black phototype. The protocol applied is that described in Example 29. […]

[2] = target: T1, Human tyrosinase; assay: In vitro test of inhibition of human tyrosinase from melanocyte extracts (L-dopa/MBTH, OD 490 nm); type: biochemical; details: melanocyte extract; for inhibition at 100 µM: 10^−4M, read-out: Inhibition of human tyrosinase, percentage of inhibition, Mean 10^−4M; for inhibition at 10 µM: 10^−5M, read-out: Inhibition of human tyrosinase, percentage of inhibition, Mean 10^−5M
Protocol: Human tyrosinase, obtained from melanocyte extracts obtained from healthy donors, catalyses the formation of L-dopaquinone from L-dopa. Now, the L-dopaquinone may be quantified by visible spectrophotometry at 490 nm by means of a chromogen: 3-methyl-2-benzothiazolinone hydrazone (MBTH).
The melanocyte extract is obtained after lysis of cell membranes of the normal human melanocytes, performed via a thermal shock. The supernatant is recovered and then incubated with MBTH (Sigma) and L-dopa (Sigma). […]

[3] = test system: fungal tyrosinase; assay: In vitro test of inhibition of isolated fungal tyrosinase (L-dopa, dopachrome OD 490 nm); type: biochemical
From the text: Tyrosinase catalyses the formation of L-dopaquinone and then of dopachrome from L-dopa. Now, dopachrome is a coloured compound that may be quantified by visible spectrophotometry at 490 nm. The use of an active agent capable of modifying the enzymatic activity will be reflected by a variation in the optical density at 490 nm. The to ratio of the rates of formation of dopachrome makes it possible to determine precisely the activations or inhibitions obtained with the various test molecules.
The sample to be tested is incubated in the presence of fungal tyrosinase (Sigma), for 5 minutes with stirring. L-Dopa (Sigma), a tyrosinase substrate, is incubated for 10 minutes in the absence of light, in the presence or absence of the test molecules. The calculation of the percentage of inhibition is performed by relating the test OD to the OD of the negative control without molecule.
In the context of this in vitro test, the p-coumaric acid derivatives were tested at final concentrations of 10^−4M and 10^−5M.

[4] = Antiradical activity, acellular DPPH model; details: DPPH 30 minutes, absorbance 520 nm
Protocol: The antiradical activity of the derivatives derived from the syntheses described above was evaluated in an in vitro acellular model using DPPH.
1,1-Diphenyl 2-picryihydrazyl, on account of its paramagnetic structure, can accept an electron or a hydrogen radical to become a stable diamagnetic molecule. This free radical, which is purple coloured in ethanol, has a strong absorption band at 520 nm.
The addition of a compound that provides electrons results in a decolorization of the 1,1-diphenyl 2-picrylhydrazyl that is proportional to the number of electrons taken up by the radical, which may be monitored by measuring the absorbance at 520 nm.
DPPH is incubated for 30 minutes in the presence of the derivatives described above, tested at a concentration of 10^−5M, or alone for the control. At the end of the incubation, the antiradical activity of the above derivatives is evaluated by measuring the absorbance of the solution at 520 nm.
The antiradical activity of each test product is calculated according to the formula, as a percentage: 100−((OD520 in the presence of the test compound/OD520 in the absence of compound)×100)

[5] = test system: normal human melanocytes; assay: Cytotoxicity on normal human melanocytes, PNPP assay; type: cell-based; details: 24 hours, relative to untreated wells
Protocol: The cytotoxicity of the active agents is studied on normal human melanocytes in 24-well plates, via assay with PNPP (P-nitrophenyl phosphate), this substance being converted into p-nitrophenol via the intracellular acid phosphatases of viable cells. The absorbance of p-nitrophenol at 405 nm is directly proportional to the number of viable cells.
The active agents are tested at 2 different concentrations (10^−4 M and 10^−5 M) and added to the culture medium and incubated at 37° C. for 24 hours. The assay with PNPP is performed on the cell lawn and the results are expressed as a percentage of viability relative to the negative control (untreated wells).

[6] = test system: melanocytes; assay: Cytotoxicity of literature controls in the melanocyte tyrosinase model
Protocol: A study is performed with molecules known in the literature for their depigmenting activity; these molecules are applied to the model described in Example 29 so as to compare their efficacy relative to the molecules described in the various examples. […]

[7] = 10^−4M, 24 hours, read-out: Inhibition of human tyrosinase after application to normal human melanocytes, percentage of inhibition, Mean 10^−4M
[8] = 10^−5M, 24 hours, read-out: Inhibition of human tyrosinase after application to normal human melanocytes, percentage of inhibition, Mean 10^−5M
[9] = read-out: Inhibition of human tyrosinase after application to normal human melanocytes, percentage of inhibition, Mean 10^−4M

SMILES: Cl.NCCc1ccc(O)c(O)c1 [Dopamine, 3-hydroxytyramine, reference compound]
anti-tyrosinase activity, in words [1]: very low activity
inhibition at 100 µM [1, 9]: 10.3%

SMILES: COc1cc(CCC(=O)NCCc2ccc(O)c(O)c2)ccc1O [Example 6, N-dihydroferuloyldopamine]
inhibition at 100 µM [1, 7]: 41.8%

SMILES: O=C(CCc1ccc(O)c(O)c1)NCCc1ccc(O)cc1 [Example 13, dihydrocaffeoyltyramine]
inhibition at 100 µM [1, 7]: 93.9%
inhibition at 10 µM [1, 8]: 12.9%

SMILES: O=C(CCc1ccc(O)cc1)NCCc1ccc(O)cc1 [Example 16, N-dihydrocoumaroyltyramine]
inhibition at 100 µM [1, 7]: 96.2%
inhibition at 10 µM [1, 8]: 40.7%

SMILES: O=c1cc(CO)occ1O [Kojic acid, kojic acid]
Cytotoxicity, 0.005% [6]: no
Cytotoxicity, 0.05% [6]: no
Cytotoxicity, 0.5% [6]: cell death
Inhibition of fungal tyrosinase, positive control ([3]; 0.01%): 45%

SMILES: Cl.NCCc1ccc(O)cc1 [Tyramine, reference compound]
anti-tyrosinase activity, in words [1]: very low activity
inhibition at 100 µM [1, 9]: 22.8%

SMILES: O=C1O[C@H]([C@@H](O)CO)C([O-])=C1OP(=O)([O-])[O-].O=C1O[C@H]([C@@H](O)CO)C([O-])=C1OP(=O)([O-])[O-].[Mg+2].[Mg+2].[Mg+2] [VitC MgP, reference compound]
Cytotoxicity, 0.03% [6]: no
Cytotoxicity, 0.3% [6]: no
Cytotoxicity, 3% [6]: no
Tyrosinase inhibition, Mean Inhibition (%), 0.03% [1]: 2.93%
Tyrosinase inhibition, Mean Inhibition (%), 0.3% ([1]; test concentration 0.3%): 1.55%
Tyrosinase inhibition, Mean Inhibition (%), 3% ([1]; test concentration 3%): 0%

SMILES: O=C1O[C@H]([C@@H](O)CO)C(O)=C1O [VitC, Vitamin C]
Cytotoxicity, 0.03% [6]: no
Cytotoxicity, 0.3% ([6]; test concentration 0.3%): cell death
Cytotoxicity, 3% ([6]; test concentration 3%): cell death
Tyrosinase inhibition, Mean Inhibition (%), 0.03% [1]: 0%

SMILES: O=C(O)CCc1ccc(O)cc1 [p-Dihydrocoumaric acid, 3-(4-hydroxyphenyl)propionic acid, reference compound]
inhibition at 100 µM [1, 7]: 3.74%

More lines, main results first:

inhibition at 100 µM [1, 7]: 10.4%
inhibition at 10 µM [1, 8]: 2.34%
anti-tyrosinase activity, in words [1]: very low activity
SMILES: O=C(O)C=Cc1ccc(O)c(O)c1 [Caffeic acid, 3,4-dihydroxycinnamic acid, reference compound]

inhibition at 100 µM [2]: 0.94%
inhibition at 10 µM [2]: 0%
Inhibition of fungal tyrosinase, percentage of inhibition, Mean 10^−4M ([3]; 490 nm): 0%
inhibition at 100 µM [1, 7]: 24.6%
inhibition at 10 µM [1, 8]: 18.5%
SMILES: COc1cc(/C=C/C(=O)NCCc2ccc(OC)c(OC)c2)ccc1O [Example 2, N-trans-feruloyl-3,4-dimethoxydopamine]
Antiradical activity, Mean 10^−5 M [4]: 20.16%
Percentages of viability, Mean 10^−4 M [5]: 114.29%
Percentages of viability, Mean 10^−5 M [5]: 114.6%

inhibition at 100 µM [2]: 0%
inhibition at 10 µM [2]: 7.56%
Inhibition of fungal tyrosinase, percentage of inhibition, Mean 10^−4M ([3]; 490 nm): 29.41%
Inhibition of fungal tyrosinase, percentage of inhibition, Mean 10^−5M ([3]; 10^−5M, 490 nm): 10.16%
inhibition at 100 µM [1, 7]: 49.6%
inhibition at 10 µM [1, 8]: 33.1%
inhibition at 1000 µM ([1]; B103, Donor B, brown phototype, read-out: Inhibition of tyrosinase, Mean Donor B, 10^−3 M): 87.4%
inhibition at 100 µM ([1]; B104, Donor B, brown phototype, 10^−4 M, read-out: Inhibition of tyrosinase, Mean Donor B, 10^−4 M): 30.5%
inhibition at 100 µM ([1]; Donor 1, fair phototype, 10^−4 M, read-out: Inhibition of tyrosinase, Mean 10^−4 M, Donor 1): 44.8%
inhibition at 10 µM ([1]; Donor 1, fair phototype, 10^−5 M, read-out: Inhibition of tyrosinase, Mean 10^−5 M, Donor 1): 0%
inhibition at 100 µM ([1]; Donor 2, fair phototype, 10^−4 M, read-out: Inhibition of tyrosinase, Mean 10^−4 M, Donor 2): 10.7%
inhibition at 10 µM ([1]; Donor 2, fair phototype, 10^−5 M, read-out: Inhibition of tyrosinase, Mean 10^−5 M, Donor 2): 0%
inhibition at 100 µM ([1]; Donor 3, fair phototype, 10^−4 M, read-out: Inhibition of tyrosinase, Mean 10^−4 M, Donor 3): 57.9%
inhibition at 10 µM ([1]; Donor 3, fair phototype, 10^−5 M, read-out: Inhibition of tyrosinase, Mean 10^−5 M, Donor 3): 42.5%
inhibition at 1000 µM ([1]; Donor A, brown phototype, read-out: Inhibition of tyrosinase, Mean Donor A, 10^−3 M): 85.6%
inhibition at 100 µM ([1]; Donor A, brown phototype, 10^−4 M, read-out: Inhibition of tyrosinase, Mean Donor A, 10^−4 M): 40.4%
inhibition at 10 µM ([1]; Donor A, brown phototype, 10^−5 M, read-out: Inhibition of tyrosinase, Mean Donor A, 10^−5 M): 15.6%
inhibition at 10 µM ([1]; Donor B, brown phototype, 10^−5 M, read-out: Inhibition of tyrosinase, Mean Donor B, 10^−5 M): 16.7%
inhibition at 100 µM ([1]; Donor S, fair phototype, 10^−4 M, read-out: Inhibition of tyrosinase, Mean 10^−4 M, Donor S): 49.6%
inhibition at 10 µM ([1]; Donor S, fair phototype, 10^−5 M, read-out: Inhibition of tyrosinase, Mean 10^−5 M, Donor S): 33.1%
inhibition at 100 µM ([1]; donor of black phototype, 10^−4 M, read-out: Inhibition, Mean Negroid skin, 10^−4 M): 44.5%
inhibition at 10 µM ([1]; donor of black phototype, 10^−5 M, read-out: Inhibition, Mean Negroid skin, 10^−5 M): 21.9%
SMILES: COc1cc(/C=C/C(=O)NCCc2ccc(O)cc2)ccc1O [Example 3, N-trans-feruloyltyramine]
Antiradical activity, Mean 10^−5 M [4]: 13.73%
Percentages of viability, Mean 10^−4 M [5]: 102.55%
Percentages of viability, Mean 10^−5 M [5]: 111.54%

inhibition at 100 µM [1, 7]: 27.7%
SMILES: COc1cc(CCC(=O)NCCc2ccc(O)cc2)ccc1O [Example 5, N-dihydroferuloyltyramine]

inhibition at 100 µM [1, 7]: 33.6%
inhibition at 10 µM [1, 8]: 3.48%
SMILES: COc1cc(/C=C/C(=O)OCCc2ccc(O)cc2)ccc1O [Example 7, 2-(p-hydroxyphenylethyl)trans-ferulate]

inhibition at 100 µM [1, 7]: 11.7%
inhibition at 10 µM [1, 8]: 5.87%
anti-tyrosinase activity, in words [1]: very sparingly active
SMILES: COc1cc(C=CC(=O)O)ccc1O [Ferulic acid, 4-hydroxy-3-methoxycinnamic acid, reference compound]

inhibition at 100 µM [1, 7]: 50.1%
SMILES: O=C(O)C=Cc1ccc(O)cc1 [p-Coumaric acid, p-hydroxycinnamic acid, reference compound]
